Series [1] deals with male Sprague-Dawley rats. Description: Motor function score after peri-sciatic injection. Type of series: in vivo, rat.
Series [2] concerns male Sprague-Dawley rats. Description: Thermal paw withdrawal latency from radiant heat source (Hargreaves) after peri-sciatic injection. It counts as in vivo, rat.
The next series addresses cannabinoid CB2 receptor (Homo sapiens, UniProt P34972). The following applies: cited from earlier work.
For series [3], the system named is TRPV1-HEK-293 cells. The following applies: 1% QX-314, 24 hour treatment; Stueber et al., Anesthesiology, 2016; cited from earlier work.
In a further series the target is T1, TRPV1 channels (Homo sapiens, UniProt Q8NER1).
T1 construct: expressed in transfected cells
The series is described as follows: Calcium imaging (Fura-2) in HEK-293 cells stably expressing hTRPV1. It counts as cell-based. The note with it: hTRPV1-HEK-293; chloroprocaine 1-5 mM bath applied 120 s; capsaicin short (5 s) focal application.

In series [4] the test system is TRPV1-HEK-293 cells. Description: Cell viability by double staining with PI and FITC annexin V. Type of series: cell-based. As for the experimental part:
Similar treatment with 1 μg/μl capsaicin lead, after 24 hours, to death of more than 50% of cells. […] Representative of 5 experiments. FIG. 4B is a bar graph summarizing the number of dead TRPV1-HEK-293 cells without any treatment (white), treated with 2% chloroprocaine (grey) or 1 μg/μl capsaicin (black) at the indicated time points.

For series [5] the following is noted: cited from earlier work.

The pKa is the pH at which an ionisable group is half protonated.

Structures are written as SMILES. Like-named read-outs stand apart in the source and are kept apart here.

T1 sequence (Q8NER1 whole entry): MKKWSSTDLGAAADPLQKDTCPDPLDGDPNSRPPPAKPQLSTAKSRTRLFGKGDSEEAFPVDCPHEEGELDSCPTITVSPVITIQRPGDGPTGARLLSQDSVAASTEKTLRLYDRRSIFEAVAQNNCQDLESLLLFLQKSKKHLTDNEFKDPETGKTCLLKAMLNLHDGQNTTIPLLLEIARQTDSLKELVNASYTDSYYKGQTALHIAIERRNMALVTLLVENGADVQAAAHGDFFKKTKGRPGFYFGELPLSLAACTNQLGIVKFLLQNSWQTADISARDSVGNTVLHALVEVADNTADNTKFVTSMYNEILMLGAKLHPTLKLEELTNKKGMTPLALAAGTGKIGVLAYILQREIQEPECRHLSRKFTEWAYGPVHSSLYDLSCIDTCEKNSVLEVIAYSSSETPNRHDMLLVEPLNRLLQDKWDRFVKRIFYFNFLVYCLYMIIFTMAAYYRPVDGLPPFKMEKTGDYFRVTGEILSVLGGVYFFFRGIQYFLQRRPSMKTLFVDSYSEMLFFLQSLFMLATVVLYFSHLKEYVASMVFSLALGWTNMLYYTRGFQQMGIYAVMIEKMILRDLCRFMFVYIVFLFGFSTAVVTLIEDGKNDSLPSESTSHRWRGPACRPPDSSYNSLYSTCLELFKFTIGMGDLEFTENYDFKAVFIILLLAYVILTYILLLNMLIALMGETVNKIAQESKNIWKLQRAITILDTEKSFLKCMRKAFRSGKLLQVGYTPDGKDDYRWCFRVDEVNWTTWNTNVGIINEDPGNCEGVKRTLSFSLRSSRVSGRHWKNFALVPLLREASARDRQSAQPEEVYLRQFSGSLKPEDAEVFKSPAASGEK
Sequence of cannabinoid CB2 receptor (P34972 whole entry): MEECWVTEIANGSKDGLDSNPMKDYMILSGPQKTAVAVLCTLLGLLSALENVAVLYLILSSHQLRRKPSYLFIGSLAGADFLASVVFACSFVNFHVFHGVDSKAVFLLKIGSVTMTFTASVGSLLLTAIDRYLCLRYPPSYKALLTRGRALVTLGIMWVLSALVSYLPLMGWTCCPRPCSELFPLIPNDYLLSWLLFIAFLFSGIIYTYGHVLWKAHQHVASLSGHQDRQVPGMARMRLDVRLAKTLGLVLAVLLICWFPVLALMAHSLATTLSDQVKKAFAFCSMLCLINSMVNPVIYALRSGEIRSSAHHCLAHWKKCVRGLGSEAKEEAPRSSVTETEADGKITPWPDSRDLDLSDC
Method for TRPV1 channels: To that end, we performed calcium imaging experiments on HEK-293 cells which stably express TRPV1 and TRPA1 using HEK-293t cells for control. The cells were cultured in standard DMEM with 10% FBS, 100 U/ml penicillin and 100 μg/ml streptomycin and 2 mM Glutamax. 5 μg/ml blasticidin and 0.35% Zeocin were added for stable expression of hTRPV1 and for induction tetracycline 0.1 μg/ml was added to the medium 16 to 24 hours prior to experiments. Cells were cultivated at 37° C. and 5% CO2 and prepared on Poly-D-Lysin coated coverslips and were loaded with Fura-2 AM (stock in DMSO), for 45-60 minutes in a bath solution composed of (in mM): 145 NaCl, 5 KCl, 2 CaCl2, 1 MgCl2, 10 Glucose, 10 HEPES. They were then rinsed for 45-60 minutes for de-esterification of intracellular AM esters. Intracellular [Ca^2+]i was measured fluoroimetrically as ratiometric excitation at 340 nm and 380 nm (ΔF340/380, emission collected at 510 nm) using an inverted microscope (Nikon Eclipse Ti), equipped with an Epi-Fl attachment; perfect focus system (Nikon, Japan) and Exi Aqua monochromator (QImaging). […] A PV-820 Pneumatic PicoPump (WPI) was used for short (5 s) focal applications of capsaicin. Immediately after the puff application, capsaicin was washed out by perfusing with external solution.

In the case of `C=C(C)[C@@H]1CCC(C)=C[C@H]1c1c(O)cc(CCCCC)cc1O` [CBD, 2-[(1R,6R)-6-isopropenyl-3-methylcyclohex-2-en-1-yl]-5-pentylbenzene-1,3-diol], the “effect on response to noxious stimuli and motor abilities” value with male Sprague-Dawley rats [1] (Example 6, 1% CBD alone) is reported as “did not affect either response to noxious stimuli or motor abilities at all”. Besides, the “effect on pain behavior” value in the series with male Sprague-Dawley rats [2] (Example 6, saline with 1% CBD) was “did not affect pain behavior”. Besides, the “affinity for CB2 receptor” value on cannabinoid CB2 receptor was “very low affinity”.

For the compound `CC[N+](CC)(CC)CC(=O)Nc1c(C)cccc1C` [QX-314], the cell death with TRPV1-HEK-293 cells [3] is listed as 55%.

Regarding `COc1cc(CNC(=O)CCCC/C=C/C(C)C)ccc1O` [capsaicin], the “change in intracellular calcium (Fura-2 fluorescence)” value at TRPV1 channels is given as “substantial increase in FURA-2 fluorescence”. Besides, in the series with TRPV1-HEK-293 cells [4] (1 μg/μl capsaicin, 24 hours), the death of cells entry is recorded as “more than 50%”.

As to `CCN(CC)CCOC(=O)c1ccc(N)cc1Cl` [chloroprocaine], at TRPV1 channels, the “change in intracellular calcium (Fura-2 fluorescence)” value is reported as “does not induce calcium influx”. Further, the “duration of motor block” value in the series with male Sprague-Dawley rats [1] (Example 2, peri-sciatic injection, 0.5% chloroprocaine alone) worked out at 30 min; with male Sprague-Dawley rats [1] (Example 6, peri-sciatic, 0.5% chloroprocaine with 1% CBD or with vehicle for CBD), 30 min. For the same compound, in the series on male Sprague-Dawley rats [2] (0.5% chloroprocaine alone, same motor and pain block), the “differential block” value is “no differential block”. Moreover, in the series with male Sprague-Dawley rats [2] (Example 2, peri-sciatic, 0.5% chloroprocaine, 1 μg/μl capsaicin, 52° C.), the “effect on response to noxious heat (PWL normalized to baseline)” value is “does not affect the response to noxious heat”. In the series with male Sprague-Dawley rats [2] (Example 6, 0.5% chloroprocaine with vehicle for CBD), the “duration of inhibition of response to noxious heat” value was “about 30 min”. For the same compound, the cell death result in the series on TRPV1-HEK-293 cells [4] (2% chloroprocaine, 24 hours treatment) was “does not cause cell death”.

On to `CCCCNc1ccc(C(=O)OCCN(C)C)cc1` [tetracaine], for which the pKa in series [5] is given as 8.2.
